{"source": "patent US20230130791A1", "about": "“A Combined Inhibition of EGFR and NRF2 in The Treatment of Malignant Glioma” (United States Government as represented by the Department …, priority 2020, published 2023)", "key": {"[1]": {"details": "Human, cited from earlier work"}, "[2]": {"tested_on": "preclinical GBM models", "assay": "Preliminary orthotopic GBM experiments (FIG. 6, general statements)", "format": "in vivo"}, "[3]": {"tested_on": "GBM12 cells", "assay": "Alamarblue cell viability assay, GBM12", "format": "cell-based, human", "details": "GBM12, 72 hours; ML385 1 μm, INH 1 μm, sulfasalazine 5 μm", "from_the_text": "ML385 (1 μm) and isoniazid (INH 1 μm) are Nrf2 inhibitors while Erastin and sulfasalazine (5 μm) are xCT inhibitors."}, "[4]": {"details": "Mouse, cited from earlier work; for T½: parent drug (SASP for Sulfazaline)"}, "[5]": {"details": "in vivo; cited from earlier work"}, "[6]": {"tested_on": "glioma cells", "assay": "Cell survival/viability assays in glioma cells (general statements)", "format": "cell-based", "details": "for synergy with EGFR inhibition in cell survival assays: FIG. 5"}, "[7]": {"tested_on": "Mayo PDX GBM12 cells", "assay": "GSH/GSSG ratio by metabolite profiling (LC-MS/MS)", "format": "cell-based, human", "details": "GBM12, 24 hour exposure, means±SD of four experiments", "from_the_text": "Determination of GSH levels will be undertaken at a Biochemistry Core Facility at UT Southwestern using metabolite profiling as previously described (Krall, et al. (2017) KEAP1 loss modulates sensitivity to kinase targeted therapy in lung cancer, Elife 6; Yuan, et al. (2012) Nat Protoc 7, 872-881). Samples will be analyzed by liquid chromatography tandem mass spectrometry (LC-MS/MS) using positive ion/negative ion polarity switching via selected reaction monitoring (SRM) on a 5500 QTRAP hybrid triple quadrupole mass spectrometer. Peaks will be integrated using MultiQuant 2.1 data analysis software (AB/SCIEX). The ratio of reduced intracellular glutathione to oxidized glutathione is a measure of oxidative stress.\nData are presented as means±SD of four experiments. […] GSH, reduced glutathione; GSSG, oxidized glutathione."}, "[8]": {"assay": "Toxicity in mice by gavage", "details": "50-100 mg/kg by gavage"}, "[9]": {"tested_on": "GBM 12 or GBM6 cells", "assay": "ROS by MitoTracker Red CM-H2XRos", "format": "cell-based, human", "details": "erlotinib 1 uM, 24 hours", "source_text": "Oxidative stress. Without wishing to be bound by theory, it is hypothesized that a sudden inhibition of EGFR signaling may increase oxidative stress and thus activate Nrf2. Previous studies have reported that EGFR inhibition leads to increased oxidative stress in lung and head and neck cancers (Orcutt, et al. (2011) Erlotinib-mediated inhibition of EGFR signaling induces metabolic oxidative stress through NOX4, Cancer Res 71, 3932-3940; Qian, et al. (2009) Clin Exp Pharmacol Physiol 36, 487-494). […] MitoTracker® Red CM-H2XRos (Fisher), a reduced nonfluorescent dye which is taken up passively by living cells, will be used. In the mitochondria, the dye is oxidized by superoxide, resulting in the emission of red fluorescence.\nMitoTracker® Red CM-H2XRos (Fisher) was added to culture media at a concentration of 100 nM and incubated at 37° C. in a humidified incubator containing 5% CO2 for 30 minutes, the cells were then fixed in ice-cold methanol for 15 min at −20° C. followed by fluorescence microscopy."}, "[10]": {"tested_on": "p21", "assay": "p21 response to erlotinib (FIG. 12)", "format": "cell-based", "details": "in response to erlotinib", "source_text": "p21. p21Cip1/WAF1 is a cyclin-dependent kinase inhibitor that regulates the cell cycle and acts as an antioxidant. The antioxidant function of p21 is mediated through stabilization of Nrf2. Thus, p21 is an interesting target for study."}, "[11]": {"tested_on": "Keap1", "assay": "Cellular level of total Keap1", "format": "cell-based", "details": "data not shown"}, "[12]": {"tested_on": "GBM12 cells", "assay": "RNAseq transcriptome and pathway analysis after erlotinib", "format": "cell-based, human", "source_text": "These q-values are corrected from p-values of the hypergeometric test, for multiple testing using the false discovery rate (FDR) method."}, "[13]": {"details": "parent drug (SASP for Sulfazaline)"}, "[14]": {"details": "parent drug (SASP for Sulfazaline), dose per Table 5"}, "[15]": {"details": "TNF inhibitor added to erlotinib"}}, "note": "Like-named read-outs stand apart in the source and are kept apart here."}
{"compound": "NNC(=O)c1ccncc1", "note": "[INH, isoniazid]", "values": [{"measurement": "AUC", "setting": "[1]; 150 mg QD for 6 months", "result": 19.7, "unit": "mg·h/L"}, {"measurement": "Cmax", "setting": "[1]; 150 mg QD for 6 months", "result": 4830, "unit": "ng/mL"}, {"measurement": "tumor growth / efficacy in orthotopic experiments", "setting": "[2]", "result": "no effect"}, {"measurement": "sensitization of cells to erlotinib, cell viability", "setting": "[3]", "result": "sensitizes"}, {"measurement": "AUC", "setting": "[4]; 25 mg/kg QD for 4 wks", "result": 27.3, "unit": "mg·h/L"}, {"measurement": "Cmax", "setting": "[4]; 25 mg/kg QD for 4 wks", "result": 22, "unit": "µg/mL"}, {"measurement": "CNS penetration", "setting": "[5]", "result": "highly CNS penetrable"}, {"measurement": "synergy with EGFR inhibition in cell survival assays", "setting": "[6]", "result": "synergizes with EGFR inhibition"}]}
{"compound": "CN(C)C/C=C/C(=O)Nc1cc2c(Nc3ccc(F)c(Cl)c3)ncnc2cc1O[C@H]1CCOC1", "note": "[Afatinib, afatinib]", "values": [{"measurement": "AUC", "setting": "[1]; [13]", "result": "(~1-2 μM * hr"}, {"measurement": "Cmax", "setting": "[1]; [13]", "result": "30 to 40", "unit": "ng/mL"}, {"measurement": "T½", "setting": "[1]; [13]", "result": 60.3, "unit": "h"}, {"measurement": "AUC", "setting": "[1]; [14]", "result": "0.459 to 0.956", "unit": "mg·h/L"}, {"measurement": "Cmax", "setting": "[1]; read-out: Cmax", "result": "60 to 80", "unit": "nM"}, {"measurement": "AUC", "setting": "[4]; 30 mg/kg QD", "result": "(2375 nM * hr"}, {"measurement": "Cmax", "setting": "[4]; 30 mg/kg QD", "result": 417, "unit": "nM"}, {"measurement": "T½", "setting": "[4]", "result": 5, "unit": "h"}]}
{"compound": "CCc1cc(C(N)=S)ccn1", "note": "[Ethionamide, ethionamide]", "values": [{"measurement": "synergy with EGFR inhibition, cell viability assay", "setting": "[6]; erlotinib 1 μM and/or ethionamide 1 μM, 72 hours", "result": "synergizes with EGFR inhibition"}]}
{"compound": "O=C(O)c1cc(/N=N/c2ccc(S(=O)(=O)Nc3ccccn3)cc2)ccc1O", "note": "[sulfasalazine]", "values": [{"measurement": "AUC", "setting": "[1]; [13]", "result": "(122 μM * hr"}, {"measurement": "Cmax", "setting": "[1]; [13]", "result": 5351, "unit": "ng/mL"}, {"measurement": "T½", "setting": "[1]; [13]", "result": 9.8, "unit": "h"}, {"measurement": "AUC", "setting": "[1]; [14]", "result": "48,500 ng * hr/ml"}, {"measurement": "sensitization of cells to erlotinib, cell viability", "setting": "[3]", "result": "sensitizes"}, {"measurement": "AUC of SASP", "setting": "[4]; 67.5 mg/kg QD for 3 wks, analyte SASP", "result": "SASP: 21 μM * hr"}, {"measurement": "T½", "setting": "[4]", "result": 0.9, "unit": "h"}, {"measurement": "synergy with EGFR inhibition in cell survival assays", "setting": "[6]", "result": "synergizes with EGFR inhibition"}]}
{"compound": "C#Cc1cccc(Nc2ncnc3cc(OCCOC)c(OCCOC)cc23)c1", "note": "[Erlotinib, erlotinib]", "values": [{"measurement": "Cmax", "setting": "[1]; [13]", "result": 872, "unit": "ng/mL"}, {"measurement": "AUC", "setting": "[1]; [14]", "result": "11,860 ng * hr/ml"}, {"measurement": "GSH/GSSG", "setting": "[7]", "result": "68.5 ± 15.2"}, {"measurement": "toxicity", "setting": "[8]", "result": "without significant toxicity"}, {"measurement": "ROS (Mitotracker dye)", "setting": "[9]", "result": "increase in ROS"}, {"measurement": "p21 level", "setting": "[10]", "result": "not upregulated"}, {"measurement": "cellular level of total Keap1", "setting": "[11]", "result": "not changed"}, {"measurement": "AUC", "setting": "[4]; 12.5 mg/kg QD", "result": "27,042 ng * hr/ml"}, {"measurement": "Cmax", "setting": "[4]; 12.5 mg/kg QD", "result": "3,513 ng/mL"}, {"measurement": "T½", "setting": "[4]", "result": 3.1, "unit": "h"}, {"measurement": "Genes, Erl-induced pathway", "setting": "[12]; Axon guidance", "result": 42}, {"measurement": "Genes, Erl-induced pathway", "setting": "[12]; Ectoderm Differentiation", "result": 35}, {"measurement": "Genes, Erl-induced pathway", "setting": "[12]; Glutathione conjugation", "result": 14}, {"measurement": "Genes, Erl-induced pathway", "setting": "[12]; NRF2 pathway", "result": 40}, {"measurement": "Genes, Erl-induced pathway", "setting": "[12]; Validated targets of C-MYC transcriptional repression", "result": 23}, {"measurement": "Genes, Erl-induced pathway", "setting": "[12]; Validated transcriptional targets of Tap63 isoforms", "result": 19}, {"measurement": "genes upregulated by RNAseq", "setting": "[12]; erlotinib 1 μM, 24 hours, GBM 12 cells", "result": 3635}, {"measurement": "GPX3 expression in GBM", "setting": "[12]; in response to erlotinib (FIG. 3)", "result": "upregulated"}]}
{"compound": "etanercept", "values": [{"measurement": "block of the 40 NRF2 target genes induced by erlotinib", "setting": "[12]; [15]", "result": "could not be blocked"}, {"measurement": "upregulation of erlotinib induced genes blocked", "setting": "[12]; [15]", "result": 25, "unit": "%"}]}
{"compound": "Cc1ccccc1C(=O)N1CCc2cc(-c3nc(NC(=O)Cc4ccc5c(c4)OCO5)sc3C)ccc21", "note": "[ML385]", "values": [{"measurement": "sensitization of cells to erlotinib, cell viability", "setting": "[3]", "result": "sensitizes"}]}
